Test results: paper PMC8854749, “Celastrol Inhibits Canine Mammary Tumor Cells by Inducing Apoptosis via the Caspase Pathway” (Frontiers in Veterinary Science, 2022)

How the values were obtained:
Type in all cases: cell-based, canine
CIPp cells [1] = experiment: Annexin V-FITC/PI apoptosis flow cytometry; conditions: 0.3 and 0.9 μM, 24 h, vs control group
Procedure: (§1) CMT-7364 and CIPp cells were seeded in a 6-well plate at a concentration of 1 × 10^5 cells/well, treated with different concentrations of celastrol (0, 0.3, and 0.9 μM) for 24 h. The cell culture medium was collected, the cells were washed once with PBS, digested with 0.25% trypsin, the cells were resuspended with the collected cell culture medium and kept after centrifugation. The cells were stained with Annexin V-FITC Apoptosis Detection Kit, and Guava easy Cyte5 (Merck millipore, United States) was used to detect the stained cells, and the data were analyzed by using Flow Jo software (version 10.0.7, United States).

CMT-7364 cells [2] = experiment: Annexin V-FITC/PI apoptosis flow cytometry; conditions: 0.3 and 0.9 μM, 24 h, vs control group
Procedure: as §1

CIPp cells [3] = experiment: qPCR of Caspase-3, Caspase-9, p21, p27 mRNA (2^-ΔΔCt, β-actin reference)
Procedure: (§2) After CMT-7364 and CIPp cells were treated with or without 0.9 μM celastrol for 24 h, TRIzol was used to isolate the total RNA of the cells. The RNA was then reverse transcribed into cDNA using a reverse transcriptase kit. A 20 μl reaction system was prepared according to the manufacturer's instructions and tested in the Real-Time PCR System (Long Gene Q1000, China). The results were analyzed by the 2^−ΔΔCt method: ΔΔCt = (target gene Ct of the experimental group-internal reference gene Ct of the experimental group)-(target gene Ct of the control group-internal reference gene Ct of the control group), β-actin was the internal reference gene.

CMT-7364 cells [4] = experiment: as above
Procedure: as §2

CIPp cells [5] = experiment: Colony formation assay; conditions: 0.3 μM or 0.9 μM for 24 h, then 10 days, vs control group
Procedure: (§3) CMT-7364 and CIPp cells were seeded in a 6-well cell culture plate at a concentration of 1 × 10^4 cells/well until they became adherent, cultured for another 24 h with serum-containing medium with 0 μM celastrol (control group), 0.3 μM celastrol, and 0.9 μM celastrol, respectively. Cells were treated with 0.25% trypsin (Gibco, NY, United States) and resuspended into single cells, each group of cells was seeded in a 6-well cell culture plate at 400 cells/well concentration, and cultured for 10 consecutive days. […] The cells were stained with 0.1% crystal violet, and photographed with a digital camera, followed by calculating the number of colonies.

CMT-7364 cells [6] = experiment: Colony formation assay; conditions: 0.3 μM or 0.9 μM for 24 h, then 10 days, vs control group
Procedure: as §3

CIPp cells [7] = experiment: Cell invasion (transwell, Matrigel) assay
Procedure: (§4) The transwell chambers were placed in a 24-well cell culture plate, each well was plated with 100 μl serum-free medium containing 5% Matrigel on the upper chamber, and placed in incubator at 37°C for 2 h. The excess media were pipetted out of the upper chamber, 100 μl of cell suspension with or without celastrol treatment (0.3 μM or 0.9 μM) were added at a concentration of 1 × 10^4 cells/ml in each upper chamber; the lower chambers were filled with 600 μl medium containing 10% serum for each well. […] PBS was used to rinse the chambers for 2 min with 3 times repeated, then the cells were fixed with methanol for 10 min, followed by distilled water rinsed for 2 min with 3 times repeated. Finally, cells were dyed with 0.1% crystal violet at room temperature for 20 min, and washed with distilled water until the water is colorless. Images of cell invasion were taken with an inverted microscope, and the stained cells represented the invasion cells were counted by a cell counter to analyze the cell invasion rate. The relative invasion rate = (cell number celastrol /cell number control) × 100%.

CMT-7364 cells [8] = experiment: Cell invasion (transwell, Matrigel) assay
Procedure: as §4

[9] = CIPp cells, 0.9 μM, 24 h, qPCR, vs control
[10] = CMT-7364, 0.9 μM celastrol, SYBR
[11] = CMT-7364 cells, 0.9 μM, 24 h, qPCR, vs control
[12] = test 1, CMT-7364 cells, 0.9 μM, instrument sheet, CMT-7364 control RQ 1
[13] = 0.9 μM, 24 h, relative to control
[14] = 0.3 and 0.9 μM, vs control group

CC1=C(O)C(=O)C=C2C1=CC=C1[C@@]2(C)CC[C@@]2(C)[C@@H]3C[C@](C)(C(=O)O)CC[C@]3(C)CC[C@]12C [celastrol, Celastrol]
percentages of early and late apoptotic cells (CIPp cells [1]): increased in a dose-dependent manner | percentages of early and late apoptotic cells (CMT-7364 cells [2]): increased in a dose-dependent manner | mRNA expression level of Caspase-3 (CIPp cells [3]; [9]): significantly up-regulated | mRNA expression level of Caspase-9 (CIPp cells [3]; [9]): significantly up-regulated | mRNA expression level of p21 (CIPp cells [3]; [9]): up-regulated | mRNA expression level of p27 (CIPp cells [3]; [9]): up-regulated | RQ Max, caspase-9 (CIPp cells [3]; CIPp, 0.9 μM celastrol, SYBR): 2.2 | RQ Max, p-21 (CIPp cells [3]; CIPp, 0.9 μM celastrol, SYBR): 155.13 | RQ Max, p-27 (CIPp cells [3]; CIPp, 0.9 μM celastrol, SYBR): 4.26 | RQ Max, β-actin (CIPp cells [3]; CIPp, 0.9 μM celastrol, SYBR): 0.51 | RQ Min, caspase-9 (CIPp cells [3]; CIPp, 0.9 μM celastrol, SYBR): 0.78 | RQ Min, p-21 (CIPp cells [3]; CIPp, 0.9 μM celastrol, SYBR): 3.13 | RQ Min, p-27 (CIPp cells [3]; CIPp, 0.9 μM celastrol, SYBR): 1.54 | RQ Min, β-actin (CIPp cells [3]; CIPp, 0.9 μM celastrol, SYBR): 0.16 | RQ, caspase-9 (CIPp cells [3]; CIPp, 0.9 μM celastrol, SYBR): 1.31 | RQ, p-21 (CIPp cells [3]; CIPp, 0.9 μM celastrol, SYBR): 22.02 | RQ, p-27 (CIPp cells [3]; CIPp, 0.9 μM celastrol, SYBR): 2.56 | RQ, β-actin (CIPp cells [3]; CIPp, 0.9 μM celastrol, SYBR): 0.29 | RQ, caspase-9 (CIPp cells [3]; test 1, CIPp cells, 0.9 μM, instrument sheet, calibrator CMT-7364 control RQ 1, CIPp control RQ 0.41): 0.44 | RQ, caspase-3 (CIPp cells [3]; test 1, CIPp cells, 0.9 μM, instrument sheet, calibrator CMT-7364 control RQ 1, CIPp control RQ 0.46): 0.42 | RQ, p-21 (CIPp cells [3]; test 1, CIPp cells, 0.9 μM, instrument sheet, calibrator CMT-7364 control RQ 1, CIPp control RQ 0.49): 0.27 | RQ, p-27 (CIPp cells [3]; test 1, CIPp cells, 0.9 μM, instrument sheet, calibrator CMT-7364 control RQ 1, CIPp control RQ 0.59): 0.17 | RQ, caspase-9 (CIPp cells [3]; test 2, CIPp cells, 0.9 μM, instrument sheet, calibrator CMT-7364 0.9 μM celastrol RQ 1, CIPp control RQ 156.08): 8.49 | RQ, p-21 (CIPp cells [3]; test 2, CIPp cells, 0.9 μM, instrument sheet, calibrator CMT-7364 0.9 μM celastrol RQ 1, CIPp control RQ 156.97): 12.17 | RQ, p-27 (CIPp cells [3]; test 2, CIPp cells, 0.9 μM, instrument sheet, calibrator CMT-7364 0.9 μM celastrol RQ 1, CIPp control RQ 162.87): 12.46 | RQ Max, caspase-9 (CMT-7364 cells [4]; [10]): 2.21 | RQ Max, p-27 (CMT-7364 cells [4]; [10]): 1.96 | RQ Max, β-actin (CMT-7364 cells [4]; [10]): 1.84 | RQ Min, caspase-9 (CMT-7364 cells [4]; [10]): 0.45 | RQ Min, p-21 (CMT-7364 cells [4]; [10]): 0 | RQ Min, p-27 (CMT-7364 cells [4]; [10]): 0.51 | RQ Min, β-actin (CMT-7364 cells [4]; [10]): 0.54 | RQ, caspase-9 (CMT-7364 cells [4]; [10]): 1 | RQ, p-21 (CMT-7364 cells [4]; [10]): 1 | RQ, p-27 (CMT-7364 cells [4]; [10]): 1 | RQ, β-actin (CMT-7364 cells [4]; [10]): 1 | mRNA expression level of Caspase-3 (CMT-7364 cells [4]; [11]): significantly up-regulated | mRNA expression level of Caspase-9 (CMT-7364 cells [4]; [11]): significantly up-regulated | mRNA expression level of p21 (CMT-7364 cells [4]; [11]): up-regulated | mRNA expression level of p27 (CMT-7364 cells [4]; [11]): up-regulated | RQ, caspase-3 (CMT-7364 cells [4]; [12]): 0.26 | RQ, caspase-9 (CMT-7364 cells [4]; [12]): 0.29 | RQ, p-21 (CMT-7364 cells [4]; [12]): 0.53 | RQ, p-27 (CMT-7364 cells [4]; [12]): 0.19 | RQ, p-27 (CMT-7364 cells [4]; test 2, CMT-7364 cells, 0.9 μM, instrument sheet, this sample is the calibrator (ΔΔCt 0.00), CMT-7364 control RQ 1.47): 1 | RQ, caspase-9 (CMT-7364 cells [4]; test 2, CMT-7364 cells, 0.9 μM, instrument sheet, this sample is the calibrator (ΔΔCt 0.00), CMT-7364 control RQ 25.61): 1 | RQ, p-21 (CMT-7364 cells [4]; test 2, CMT-7364 cells, 0.9 μM, instrument sheet, this sample is the calibrator (ΔΔCt 0.00), CMT-7364 control RQ 51.05): 1 | formation of colonies (CIPp cells [5]): significantly inhibited the formation of colonies | formation of colonies (CMT-7364 cells [6]): significantly inhibited the formation of colonies | invasion rate (CIPp cells [7]; [13]): 32.00 ± 1.73% | invasion ability (CIPp cells [7]; [14]): inhibited the invasion ability of CMT-7364 and CIPp cells in a dose-dependent manner | invasion rate (CMT-7364 cells [8]; [13]): 28.00 ± 1.53% | invasion ability (CMT-7364 cells [8]; [14]): inhibited the invasion ability of CMT-7364 and CIPp cells in a dose-dependent manner
